One compound from article PMC9413201, “Covalent Proteomimetic Inhibitor of the Bacterial FtsQB Divisome Complex” (Journal of the American Chemical Society, 2022) can be followed below.

Numbered stars: 1 amine (or outer) side, 2 acyl side, 3 side chain; on linkers, the order of the positions; unused ones are H or OH. Bridge positions count the residues as written; N and C are the ends. Square brackets hold non-standard residues; d marks the D form. Peptide text beside a SMILES is read from it. * marks the point of attachment. X1 = O=C([C@H](CCCCCC=[*:3])N[*:1])[*:2]; Nle = CCCC[C@H](N)C(=O)O; BrAc = O=C(CBr)*

In test [1] the test system is FtsB-mNG localization in E. coli lptD4213 (imp). The experiment in a line: Localization of FtsB-mNG (fluorescence microscopy). Particulars: peptide c = 100 μM, 60 min after addition, MOPS rich medium, 37 °C. It is filed as cell-based. As for the experimental part:
were incubated for 1 h at 50 °C. The condensates were collected by centrifuging for 10 s. The digests were mixed for a few seconds and transferred to another tube. 0.5 % TFA was added to inactivate trypsin. The samples were […]
E.coli mutant lptD4213 (imp)
MOPS: MOPS EZ Rich Defined Medium Kit M2105 (Teknova).
At the end of the day, the cells
The next day, the cells were grown and diluted […]
objective. […] In all experiments, the cells […]
ex470/40, dic495LP, em525/50).

Another test relates to E. coli lptD4213 (imp). The experiment in a line: Growth assay (OD600) with outer membrane-permeable E. coli lptD4213 (imp). It is filed as cell-based. How it is done:
Growth assays were performed to assess the in vitro cytotoxicity of peptides. The experiments were executed under sterile conditions. For each assay, 20 mL of fresh MOPS medium was prepared (Teknova Inc MOPS EZ Rich Defined Medium Kit | M2105: 40 mM MOPS, 4 mM Tricine, 0.01 mM FeSO4, 9.5 mM NH4Cl, 0.276 mM […]
MOPS medium with Streptomycin (30 μg/mL) and incubated overnight at 200 rpm and 37°C. The next day, the […]
peptide stocks in DMSO were diluted to four times the desired highest concentration to be measured in MOPS medium. The peptide dilutions were vortexed and briefly centrifuged. 50 μL of MOPS medium was added to each well of a Corning® 96-well Clear Flat Bottom Polystyrene TC-treated Microplate. A twofold dilution series was performed by adding 50 μL of the diluted peptide to the top row, mixing it and taking 50 μL to the next row. At each step the solution was resuspended five times. This was repeated until the last row which was skipped in order to obtain a reference measurement. After 2-3 h, the E.coli lptD4213 (imp) pre-culture was diluted to an OD600 of 0.00005. Then, 50 μL of diluted culture were added to each well and the plate sealed using a lid and parafilm. The OD600 was measured every 15 min over a period of more than 20 h (continuously shaking, 37°C) using a BioTek Synergy H1 plate reader. The obtained data were analyzed and relative growth curves plotted with GraphPad Prism 8. The assays were performed as technical triplicates. A single overnight pre-culture was used to prepare the diluted MOPS culture used in the growth assay. […]

The subject of a further test is E. coli 87. Put plainly: Zebrafish larvae infection model (E. coli 87 expressing mScarlet). It is filed as in vivo, zebrafish (Danio rerio) larvae. The following applies: L8S1 3.125 μM, 17fα 70 μM, 15 zebrafish per condition. As for the experimental part:
1.13 Microinjection of zebrafish larvae with E.coli 87 expressing mScarlet Transparent Casper zebrafish (Danio rerio) larvae were infected and treated according to protocols described by Van der Sar et al. and Bernard et al..7,8 In brief, zebrafish larvae collected from a laboratory-breeding colony kept at 24 °C and a 12:12 h dark/light regime. Larvae were selected based on morphology according to hours post fertilization (hpf) and kept at 28 °C. All protocols followed the international guidelines on the protection of animals used for scientific purposes specified by the EU Directive 2010/63/EU, which allows zebrafish larvae to be used up to the moment of free-living (5–7 dpf). Larvae were dechorionated at 28 hpf and anaesthetized in 0.2% tricaine methanesulfonate (MS222, Fluka A-5040). Larvae were individually infected with 1 nL, containing approximately 150-200 CFU ([…]), of mScarlet expressing clinical isolate E. coli 87 via microinjection of the caudal vein as described previously.9 One hour post infection, larvae were treated with L8S1, 17fα or a combination of the two via another microinjection of 1 nL in the caudal vein. To correct dilution of the treatment upon injection in the vein (1 nL in 250 nL zebrafish larvae volume), treatments were diluted in 0.1% phenol red (Sigma-Aldrich, p-0290) in phosphate buffered saline (PBS) to 250x the concentration as tested in vitro. Zebrafish larvae were kept at 30 °C throughout the experiment and survival of the larvae, based on heartbeat, was determined every 24 h for 2 d. Moreover, 18 h post infection larvae were anaesthetized using MS222 and bacterial load was determined using an Olympus IX83 fluorescence microscope (4x objective magnification, Hamamatsu ORCA-Flash 4.0 camera) at specific wavelength for detection of red fluorescence (excitation/emission, 580/610 nm). Obtained images were analyzed using CellProfiler 3.19 (Broad Institute, Cambridge, MA, USA) with a custom-made automated analysis pipeline to count and quantify pixel intensity within the larvae. Integrated red fluorescence intensity per larvae was used as a quantification of bacterial burden.

As for `CCCC[C@@H]1NC(=O)[C@H](CO)NC(=O)[C@H](CC(C)C)NC(=O)[C@H](CCC(=O)O)NC(=O)[C@H](CC(N)=O)NC(=O)[C@@H](NC(=O)[C@H](C)NC(C)=O)CCCCCC=CCCCCC[C@@H](C(=O)N[C@@H](CCCCNC(=O)CBr)C(=O)N[C@@H](Cc2ccccc2)C(=O)N[C@@H](Cc2ccc(O)cc2)C(=O)N[C@@H](CCCNC(=N)N)C(=O)N[C@@H](CC(C)C)C(N)=O)NC(=O)CNC(=O)[C@@H]2CCCN2C(=O)[C@H](CCCNC(=N)N)NC(=O)[C@H]([C@@H](C)O)NC1=O` [17fα] (Ac-A[X1]NELS[Nle]TRPG[X1]K(BrAc)FYRL-NH2; staple 2-12), the FtsB-mNG midcell localization result in test [1] is “loss of midcell localization”. Further, in the test on E. coli lptD4213 (imp) (concentration-dependent effect on growth after 15 h, highest tested concentration 100 μM, n = 3 replicates), the “lowest concentration with inhibitory effect on growth” value was 12.5 µM. Further, the “effect on bacterial growth (OD600)” value with E. coli lptD4213 (imp) (inhibitor c = 50 μM, OD600 every 15 min over 22 h, n = 3 technical replicates) is given as “prevents bacterial growth”. Besides, the “Survival rate of zebrafish larvae after 24 h (mean ± SD)” value in the test with E. coli 87 (infected with E. coli 87 (189 CFU), treated 1 h post infection by microinjection, survival by heartbeat, n = 4 replicates, SD) stood at 20.0 ±16.3. The “Survival rate of zebrafish larvae after 24 h, replicate #1” value in the test with E. coli 87 (replicate #1, E. coli 87 (189 CFU)) turned out to be 0. Besides, the “Survival rate of zebrafish larvae after 24 h, replicate #2” value in the test on E. coli 87 (replicate #2, E. coli 87 (189 CFU)) was 40. For the same compound, the “Survival rate of zebrafish larvae after 24 h, replicate #3” value with E. coli 87 (replicate #3, E. coli 87 (189 CFU)) was determined as 20. Also, the “Survival rate of zebrafish larvae after 24 h, replicate #4” value in the test with E. coli 87 (replicate #4, E. coli 87 (189 CFU)) was 20.
